Experimental data from patent publication US10973896B2, “Treatment or prevention of melanoma using photochemical internalization of a melanoma antigen” (PCI Biotech AS, priority 2014, dated 2021).

What was measured:
Format in all cases: in vivo, C57BL/6 mice
[1] = system: SIINFEKL-specific CD8 T cells; assay: Intradermal PCI immunisation, antigen-specific CD8 T cells in blood by pentamer flow cytometry (Example 1); details: 10 μg OVA with or without 100 μg TPCS2a i.d., skin illuminated 18 hours later; FIG. 1A
Experimental: C57BL/6 mice were immunised at 6-10 weeks of age. One day prior to immunisation, 10,000 OT-I spleen and lymph node cells were administered by intravenous injection into the recipient C57BL/6 mice (see Example 2). The next day, the fur was shaven off the abdominal region and 100 μl of the vaccine preparations were injected intradermally. The doses of OVA and TPCS2a were 10 μg and 100 μg, respectively. After 18 hours, the anaesthetised mice were placed on the light source for six minutes illumination (4.86 J/cm2) for activation of TPCS2a.
The frequency of antigen-specific CD8 T cells was monitored in blood and spleen by flow cytometry using H-2K^b/SIINFEKL Pro5 pentamer (Proimmune, Oxford, UK). Cell-surface expression of CD4, CD8, and CD44 and intracellular production of IFN-γ was analysed by flow cytometry after Fc-receptor blocking with anti-CD16/32. The intracellular staining was after overnight incubation at 37° C. with 0.1 μg SIINFEKL. Brefeldin A (2.5 μg/ml) was added during the last 4 hours. The cells were fixed with 4% formaldehyde for 10 minutes, permeabilised in 0.1% NP40 for 3 minutes, and stained with anti-IFN-γ for 35 minutes. […] Acquisition was performed on FACSCanto (BD Biosciences, San Jose, USA) and data analysed with FlowJo 8.5.2 (Tree Star, Inc., Ashland, Oreg.). […] Supernatants were collected after 24-72 hours and analysed using cytokine ELISA kits (eBioscience).

[2] = system: OVA-expressing B16 cells; assay: Metastatic potential of melanoma, lung melanoma spots after intravenous B16 (Example 1); details: B16 melanoma cells given intravenously after immunisation; FIG. 4
Experimental: C57BLJ6 mice were vaccinated as above with OVA with or without TPSC2a and challenged four days later with 500,000 OVA-expressing B16 cells given by intravenous injection. On day 19, mice were euthanized and spleens and lungs were harvested. The lungs were analysed by counting melanoma spots as a measure for metastasis. Spleen cells were analysed by flow cytometry for CD8 T-cell activation as described above.

[3] = system: CD8, CD44 and IFN-γ positive cells; assay: Intracellular IFN-γ staining after SIINFEKL re-stimulation (Example 2)
Experimental: (§1) The frequency of OVA-specific CD8 T-cells in blood was monitored by staining the cells with anti-CD8 antibody and H-2K^b/SIINFEKL ProS pentamer (Proimmune, Oxford, UK) for analysis by flow cytometry. The activation status of the cells was further analysed by testing the expression of CD44 and CD69 by flow cytometry. Intracellular staining for IFN-γ was done after overnight stimulation of splenocytes in 24-well plates with the CD8 epitope OVA257-264 (SIINFEKL) at 37 ° C. Brefeldin A was added during the last 4 hours. The cells were then washed and fixed with 4% formaldehyde in PBS for 10 min on ice. Anti-CD16/32 was added to block unspecific binding to Fc receptors. The cells were then permeabilised with 0.1% NP40 in PBS for 3 min and washed before staining with anti-IFN-γ, anti-CD8 and ant-CD44 antibodies (eBioscience or BD Pharmingen). The cells were acquired using FACSCanto (BD Biosciences, San Jose, USA) and analysed using FlowJo 8.5.2 software (Tree Star, Inc., Ashland, Oreg.).

[4] = system: SIINFEKL-specific CD8 T cells; assay: PCI immunisation of OT-I-spiked mice, SIINFEKL pentamer flow cytometry (Example 2)
Experimental: One day prior to the immunisation, spleens and lymph nodes were isolated from female OT-1 mice, and erythrocytes were removed by lysis (RBC Lysing Buffer Hybri-Max from Sigma-Aldrich) from the homogenised cell suspensions. The remaining cells were washed in PBS, filtered through 70 micron nylon strainers, and 2×10^6 OT-1 cells were administered by intravenous injection into recipient female C57BLJ6 mice; the adoptive transfer of SIINFEKL-specific CD8 T cells facilitates monitoring of the immune response by flow cytometry. One day or 8 hours later, mice were bled by tail bleeding, and the blood was collected in heparin-containing tubes for analysis of the baseline frequency of OVA-specific CD8 T cells.
Then, the mice were shaved on the abdominal area, and the vaccines, consisting of OVA or of a mixture of OVA and TPCS2a, were injected intradermally using syringes with 29G needles. The vaccines were kept light protected and used within 60 minutes of preparation. The vaccines were given in two injections of 50 μl each, on the left and right side of the abdominal mid line. OVA was tested at 10 to 100 μg per dose. The TPCS2a dose was 7.5 to 250 μg.
On day 0, prior to vaccination and on various days thereafter (e.g. day 6, 7, 8, 9, 14, 23, as indicated) mice were bled by tail bleeding and erythrocytes were removed by lysis, before analysis of antigen-specific CD8 T cells by flow cytometry. At the end of the experiment (typically 11, 12, 14 or 23 days), the mice were euthanized and the splenocytes analysed ex vivo. At various time points after the TPCS2a injection (0-48 hours), the mice were anaesthetised by intraperitoneal injection of a mixture of ketamine (25 mg/kg body weight) and xylazin (4 mg/kg) and placed on a light source (for illumination and activation of the photosensitiser TPCS2a). The light dose was 6 minutes, if not otherwise stated. The whole procedure is illustrated in the scheme of FIG. 6A. The illumination of mice using LumiSource™ is imaged in FIG. 6B.
as §1

[5] = system: splenocytes re-stimulated with SIINFEKL; assay: IL-2 and IFN-γ ELISA of re-stimulated splenocytes (Example 2); details: day 11 splenocytes, 10 μg OVA alone, or with PCI at 25 μg TPCS2a
Experimental: Alternatively, 2×10^5 splenocytes were re-stimulated in 96-well plates with OVA protein or the SIINFEKL. After 24 and 72 hours, supernatants were collected and analysed for IL-2 or IFN-γ by ELISA (eBioscience—performed according to the manufacturer's instructions).

OVA: Chicken ovalbumin protein, model antigen expressed by the transfected B16 melanoma cells
frequency of pentamer (H2K^d-SIINFEKL)-binding CD8 T cells in blood [1]: No or little so-called cross priming
melanoma spots (lung metastases) on the lung, average [2]: approx. 50
responders for IFN-γ production in splenocytes (better responders among mice tested) ([3]; day 11, 10 μg OVA alone, or OVA and PCI (ten mice, 25 and 250 μg TPCS2a)): weak responders in all mice tested
increase in frequency of IFN-γ-producing CD44-positive CD8 cells compared to control mice with OT-I transfer only ([3]; day 14 PBMCs, OVA alone, or PCI with illumination at 2 hours): 4 fold
frequencies of CD44-positive IFN-γ producing cells in splenocytes ([3]; day 23, FIG. 7E right panel): barely detectable frequencies
effect on SIINFEKL-specific CD8 T cells in blood as compared to untreated animals ([4]; 10 μg OVA alone, data not shown): no measurable effect
activation markers CD44, CD25 and CD69 on SIINFEKL-specific cells in blood ([4]; by day six): strong up-regulation
numbers of antigen-specific CD8 T cells ([4]; day 23, OVA alone, or OVA plus TPCS2a illuminated two hours after administration): retracted to baseline levels
frequencies of measurable SIINFEKL-specific CD8 T cells in splenocytes ([4]; day 54, 20 μg OVA with or without 200 μg TPCS2a, FIG. 14A): not different from untreated mice
frequency of SIINFEKL-specific CD8 T cells in the peripheral blood ([4]; day six, 100 μg OVA alone, or with 25 μg TPCS2a illuminated two hours after vaccination): approximately 3.5%
IL-2 secretion by ELISA ([5]; 24 hours): weak but clearly measurable
IFN-γ secretion by ELISA ([5]; 72 hours): not IFN-γ secretion
